Data as given in patent US5496805A, “Inhibitors of neutral endopeptidase” (priority 1990, dated 1996).
Ends that are not written are not given here.

Tests used:
enkephalinase = conditions: cited from earlier work
neutral endopeptidase [1] = target: T1, neutral endopeptidase (Rattus norvegicus, UniProt P07861); experiment: biochemical; conditions: enzyme purified from rat kidney; Dns-Gly-Phe-Arg 0.5 mM; pH 7.5; 37°, 30 minutes; inhibitor preincubated 10 minutes
T1 sequence (P07861 1-750): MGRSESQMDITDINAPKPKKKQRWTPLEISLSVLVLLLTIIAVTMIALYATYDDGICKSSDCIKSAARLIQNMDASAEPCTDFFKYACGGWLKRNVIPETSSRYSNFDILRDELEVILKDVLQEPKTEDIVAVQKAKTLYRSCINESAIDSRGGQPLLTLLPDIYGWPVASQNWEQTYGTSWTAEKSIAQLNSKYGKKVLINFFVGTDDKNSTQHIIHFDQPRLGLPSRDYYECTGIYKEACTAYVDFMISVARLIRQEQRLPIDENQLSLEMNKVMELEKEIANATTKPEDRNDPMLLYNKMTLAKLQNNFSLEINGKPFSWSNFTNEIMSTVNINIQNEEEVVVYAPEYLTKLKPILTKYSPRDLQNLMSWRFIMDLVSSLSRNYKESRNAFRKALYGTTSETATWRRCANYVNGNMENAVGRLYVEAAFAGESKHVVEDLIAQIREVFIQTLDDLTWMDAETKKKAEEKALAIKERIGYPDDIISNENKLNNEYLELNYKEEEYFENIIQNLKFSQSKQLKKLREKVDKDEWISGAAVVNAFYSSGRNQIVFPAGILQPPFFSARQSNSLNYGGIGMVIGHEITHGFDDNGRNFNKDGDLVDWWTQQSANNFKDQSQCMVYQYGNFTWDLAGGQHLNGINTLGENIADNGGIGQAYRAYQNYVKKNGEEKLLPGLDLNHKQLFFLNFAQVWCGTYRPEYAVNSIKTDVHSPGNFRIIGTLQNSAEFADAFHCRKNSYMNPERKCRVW
Experimental: The in vitro neutral endopeptidase activity is determined using a fluorometric assay procedure. The assay is based upon the cleavage of the fluorescent dansylated tripeptide Dns-Gly-Phe-Arg to form Dns-Gly. The latter is extracted from the acidified mixture by ethyl acetate and is strongly fluorescent.
The incubation mixture employed for the assay contains the substance Dns-Gly-Phe-Arg (0.5 mM), tris(hydroxymethyl)aminomethane -HCl buffer (pH 7.5, 50 mM), an enzyme preparation in 0.05% Triton X-100, and water or inhibitor diluted to a final volume of 0.25 ml. The enzyme preparation is purified from rat kidney according to the procedure described by Almenoff et al. in Biochemistry Vol. 22, p. 590-599 (1983). The inhibitor is preincubated for 10 minutes with the enzyme preparation and buffer before the reaction is initiated by the addition of the substrate. Incubation is carried out at 37° for 30 minutes and the reaction is stopped by the addition of 0.25 ml. 1N HCl and extraction of the Dns-Gly product into 1.5 ml. of ethyl acetate. Relative fluorescent intensity (RFI) of the ethyl acetate extract is measured using a Ferrand Spectofluorometer at excitation and emission wavelengths of 342 and 508 nm., respectively, corrected for the RFI of a zero-time control, and compared with assays lacking inhibitor.
Runs are made at different concentrations of test compound and by use of a mathematical model the IC50 is determined. The IC50 is the concentration of test compound that inhibits activity of the enzyme by 50%.

[2] = test system: conscious mineralocorticoid hypertensive rats; experiment: depressor response in conscious mineralocorticoid hypertensive rats; type: in vivo, rat (male Sprague-Dawley); conditions: dose 300 μmole/kg., intravenous; DOCA hypertensive rats; MAP recorded for at least 4 hours
Experimental: The depressor response to test compounds in conscious mineralocorticoid hypertensive rats is determined according to the following procedure.
Male Sprague-Dawley rats (approximately 150 grams) are anesthetized with sodium pentobarbital and indwelling vascular catheters are implanted in the abdominal aorta and vena cava using the methods of Weeks et al., Biological Medicine, Vol. 104, p. 646 (1960).
Before closing the abdominal incision, a pellet containing 100 mg. of deoxycorticosterone acetate (DOCA) is placed in the peritoneal cavity. DOCA is released from the pellet at a constant rate for 21 days.
The rats are housed individually and given saline (0.9% sodium chloride) to drink and fed normal rat chow for the next 3 to 4 weeks. Afterwards, the catheters are opened and mean arterial pressure (MAP) is measured via a Statham pressure transducer and a strip chart recorder. Patency of the arterial catheter is maintained by the infusion of saline from a pressurized reservoir at approximately 10 to 15 μl/min.
Following 2 hours of acclimation, the test compound is injected intravenously. Each dose is delivered as 1.0 ml./kg. +0.03 ml. (an amount sufficient to fill the void volume of the catheter). The MAP is recorded for at least 4 hours.

neutral endopeptidase [3] = experiment: inhibition of neutral endopeptidase; type: biochemical
neutral endopeptidase [4] = conditions: in vivo; cited from earlier work
[5] = test system: pig kidney microvillar membranes; conditions: in vitro; cited from earlier work
man = conditions: cited from earlier work
[6] = test system: conscious spontaneously hypertensive rats (SHR); experiment: enhancement of the depressor response to exogenous ANP 99-126 in conscious spontaneously hypertensive rats (SHR); type: in vivo, rat (male SHR); conditions: intravenous, 30 minutes before 3 nmole/kg. ANP 99-126; dose to increase the area under the blood pressure over time curve to 600 mm Hg. X minute
Experimental: The capacity of the test compounds to enhance the depressor response to exogenous ANP 99-126 in conscious spontaneously hypertensive rats (SHR) is determined according to the following procedure.
Indwelling vascular catheters are implanted in the abdominal aorta and vena cava of male SHR rats using the methods of Weeks et al. The rat is allowed at least one week recovery time. On the day of the experiment, the aortic catheter is opened and attached to a Statham transducer via a 3-way stream divider. This system allows for a continuous slow infusion of saline (approximately 10 to 15 μl/min.) from a pressurized reservoir to maintain patency of the arterial catheter. Mean arterial pressure (MAP) is continuously monitored on a strip-chart recorder.
Two hours after beginning the blood pressure measurements, the test compound (or the vehicle used to dissolve the compound) is injected intravenously (1.0 ml./kg.) and flushed in with 0.3 ml. of saline. 30 minutes later, a challenge of 3 nmole/kg. of ANP 99-126 is delivered (1.0 ml./kg. +0.3 ml. saline flush). Sufficient time is allowed after the ANP 99-126 injection to observe the maximal depressor response and a 50% recovery.
MAP is determined before ANP 99-126 administration and at 5 minute intervals until the blood pressure recovers by at least 50%. A mathematical model is used to calculate the area under the curve which extends from the time that the MAP falls to 50% of the maximal depressor response to the time of 50% recovery. Results are plotted as the log dose of inhibitor vs. the area under the curve.
The ED600 is the dose required to increase the area under the blood pressure over time curve for exogenous ANP to 600 mm Hg. X minute.

[7] = test system: conscious spontaneously hypertensive rats; experiment: renal function (sodium excretion) following intravenous administration of test compounds; type: in vivo, rat
Experimental: The renal function following administration of test compounds is determined according to the following procedure.
A catheter is contructed as follows. Pieces of 18 gauge metal tubing (about 1/4 inch in length) are inserted into two lengths of microbore Tygon tubing (0.04 inch inner diameter ×0.07 inch outer diameter). A short segment of Tygon tubing of larger diameter (0.104 inch inner diameter x 0.144 inch outer diameter) is sealed around both metal fittings. This end is to be implanted in the bladder. In order to keep the tip from becoming plugged by particulate matter, 4 holes are punched along its length.
To implant the catheters, male rats are anesthetized with sodium pentobarbital and the urinary bladder is exposed via a midline abdominal incision. A small slit is made in the dome of the urinary bladder and the tip of the catheter is inserted into the lumen. […]
During the course of the experiment, urine is collected in tared containers at specified intervals. Urine volume is determined gravimetrically (1 gram =1 ml.) and the rate of flow is calculated from the total volume/time of collection (ml./min). Sodium concentrations are measured using a Nova-1 Ion Selective Electrode Analyzer. Electrolyte excretion rates (μ Eq./min.) are calculated by multiplying the ion concentration (μ Eq./ml.) by the urine flow (mi./min.). […]

Compound	IC50 (neutral endopeptidase [1]) [µM]	Change in MAI [2]	ED600 [6] [µmol/kg]	also measured
O=C(O)CNC(=O)C(CS)Cc1ccccc1 (centres unmarked) [thiorphan, [(D,L)-3-mercapto-2-benzylpropanol]glycine]	–	–	–	inhibitor of enkephalinase in vitro (enkephalinase): nanomolar concentrations
C[C@H](NC(=O)C(CS)Cc1ccccc1)C(=O)N1CCC[C@H]1C(=O)O (mixture of isomers) [Example 64, (±)-1-[N-[2-(Mercaptomethyl)-1-oxo-3-phenylpropyl]-L-alanyl]-L-proline]	0.006	-44 ± 5 mm. of Hg.	–	–
CC(C)C[C@H](NP(=O)(O)O[C@@H]1O[C@@H](C)[C@H](O)[C@@H](O)[C@H]1O)C(=O)N[C@@H](Cc1c[nH]c2ccccc12)C(=O)O [Example 72, N-(α-L-Rhamnopyranosyloxyhydroxyphosphinyl)-L-leucyl-L-tryptophan]	0.0038	–	–	inhibition of neutral endopeptidase (neutral endopeptidase [3]): inhibits neutral endopeptidase; excretion of kinins (neutral endopeptidase [4]): increased excretion of kinins; sodium excretion (neutral endopeptidase [4]): increased sodium excretion; urinary kininase activity (neutral endopeptidase [4]): decreased urinary kininase activity; urine volume (neutral endopeptidase [4]): increased urine volume; hydrolysis of α-human atrial natriuretic peptide [5]: suppressed
human ANF 99-126: putative circulating hormone in man, a 28 amino acid peptide called human ANF 99-126 (SLRRSSCFGGRMDRIGAQSGLGCNSFRY; ends and bridges not checked; cysteine pairing not given here; UniProt P01160 124-151, looked up)	–	–	–	effect of exogenous administration to man (man): diuresis, natriuresis, and a fall in blood pressure
C[C@H](NC(=O)[C@@H](S)Cc1ccccc1)C(=O)N1CCC[C@H]1C(=O)O [Example 66, (S)-1-[N-(2-Mercapto-1-oxo-3-phenylpropyl)-L-alanyl]-L-proline]	0.078	–	2.93	–
CC(C)C[C@H](NC(=O)C(CS)Cc1ccccc1)C(=O)O (single isomer, unassigned; isomer a) [Example 1, N-[2-(Mercaptomethyl)-1-oxo-3-phenylpropyl]-L-leucine (Isomer A)]	–	-65 ± 14 mm. of Hg.	22.8	increase in sodium excretion ([7]; intravenous 100 mg./kg.): 2.4 fold
O=C(O)CCCCCCNC(=O)C(CS)Cc1ccccc1 (centres unmarked) [Example 52, 7-[[2-(Mercaptomethy1)-1-oxo-3-phenylpropyl]amino]-heptanoic acid]	0.026	-41 ± 8 mm. of Hg.	15.5	increase in the rate of sodium excretion ([7]; intravenous 30 mg./kg. plus 3 mg./kg./min. for 20 minutes, conscious spontaneously hypertensive rats): 2.6 fold
CC(C)CC(CS)C(=O)N[C@@H](Cc1c[nH]c2ccccc12)C(=O)O (mixture of isomers) [Example 35, (±)-N-[2-(Mercaptomethyl)-4-methyl-1-oxopentyl]-L-tryptophan]	0.0069	-56 ± 3 mm. of Hg.	9.2	–
CC(C)C[C@H](NC(=O)C(CS)Cc1ccccc1)C(=O)O (single isomer, unassigned; isomer b) [Example 36, N-[2-(Mercaptomethyl)-1-oxo-3-phenylpropyl]-L-leucine (isomer B)]	–	–	8.22	–
C[C@H](CS)C(=O)N[C@@H](Cc1ccccc1)C(=O)O [Example 39, (S)-N-(3-Mercapto-2-methyl-1-oxopropyl)-L-phenylalanine]	0.015	-55 ± 4 mm. of Hg.	–	–
